Data on 17 compounds can be found in patent publication US10550100B2, “5-[3-[piperzin-1-yl]-3-oxo-propyl]-imidazolidine-2,4-dione derivatives as ADAMTS 4 and 5 inhibitors for treating E.G. osteoarthritis” (GALAPAGOS NV, priority 2016, dated 2020).

Where two headings read alike, the source gives them in different places.

Common to all, as to format: biochemical
For experiment [1], the target named is rnADAMTS-5 (1-564-6H) (Rattus norvegicus (Rat), UniProt Q6TY19). Nature of the experiment: Rat ADAMTS-5 TBIS-1 substrate cleavage assay. Conditions: rnADAMTS-5, TBIS-1 substrate, 120 min at 37° C.; read-out: Rat ADAMTS-5 potency IC50. The method, then: The basis for the assay is the cleavage of the substrate TBIS-1 (5 FAM-[…] (5TAMRA)K-NH2) (SEQ ID NO: 2) by rnADAMTS-5 (1-564-6H).
(§1) The reaction is initiated by adding to the assay plate TBIS-1 (10 μL, 4.5 μM, Anaspec) in the same buffer.
Finally, the fluorescence is read on the Envision (Perkin Elmer) after an incubation of 120 min at 37° C. (Excitation 485 nm, emission 535).

For experiment [2], the target named is human ADAMTS-5 (Homo sapiens (Human), UniProt Q9UNA0). Nature of the experiment: hADAMTS-5 TBIS-1 cleavage assay, Protocol 3. Particulars: Protocol 3, TBIS-1 substrate, 90 min at 37° C.; read-out: hADAMTS-5 potency IC50. The method, then: as §1
Finally, the fluorescence is read on the Envision (Perkin Elmer) after an incubation of 90 min at 37° C. (Excitation 485 nm, emission 530).

Experiment [3] has as its target human ADAMTS6 (Homo sapiens (Human), UniProt Q9UKP5). Nature of the experiment: hADAMTS-6 520 MMP FRET substrate XII cleavage assay. Particulars: 37° C. for 2 h, read-out: hADAMTS-6 potency IC50. Put shortly:
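FRET cleavage of 520 MMP Substrate XII (Arg-Pro-Lys-Pro-Tyr-Ala-Nva-Trp-Met-Lys) by 0.73 nM enzyme in 25 mM Tris pH8.0, 0.05% CHAPS, 2.5 mM CaCl2. Compound dilution series from 20 μM top, 1/5 steps; substrate added from 1 μM stock, 2 h at 37° C. Fluorescence read at exc485/em530 for IC50.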

For experiment [4], the target named is human TACE (Homo sapiens (Human), UniProt P78536). Nature of the experiment: hTACE 5FAM-[…]-5TAMRA cleavage assay. Particulars: 75 min at room temperature, read-out: hTACE potency IC50. The protocol:
Finally, the fluorescence is read on the Envision (Perkin Elmer) after an incubation of 75 min at room temperature (Excitation 485 nm, Emission 530).

Experiment [5] addresses T1, human MMP13 (Homo sapiens (Human), UniProt P45452). As to the kind of experiment: hMMP13 390 MMP FRET Substrate I cleavage assay, Protocol 1. Particulars: Protocol 1, 390 MMP FRET Substrate I; read-out: hMMP-13 potency IC50. The method, then:
(§2) The basis for the assay is the cleavage of the substrate 390 MMP FRET Substrate I (Anaspec Cat# AS-27076) by human MMP13 (Chemicon, Cat#CC068).
(§3) Human MMP13 is preactivated by incubated the enzyme in the same buffer complemented with 1 mM freshly prepared p-Aminophenylmercuric acetate (AMPA) for 1 h at 37° C.
(§4) The reaction is initiated by adding to the assay plate 390 MMP FRET Substrate I (10 μL, 2.5 μM) in the same buffer.
(§5) Finally, the fluorescence is read on the Envision (Perkin Elmer) after an incubation of 45 min at room temperature (Excitation 485 nm, Emission 530).

For experiment [6], the target named is T1, human MMP13. Nature of the experiment: hMMP13 390 MMP FRET Substrate I cleavage assay, Protocol 2. Conditions: Protocol 2, 390 MMP FRET Substrate I; read-out: hMMP-13 potency IC50. The protocol: as §2, §3, §4, §5
The target in experiment [7] is human MMP14 (Homo sapiens (Human), UniProt P50281). Nature of the experiment: hMMP14 390 MMP FRET Substrate I cleavage assay. Conditions: 60 min at room temperature, read-out: hMMP-14 potency IC50. The method, then:
The basis for the assay is the cleavage of the substrate 390 MMP FRET Substrate I (Anaspec Cat# AS-27076) by human MMP14 (Biomol, Cat#SE-259).
as §4
Finally, the fluorescence is read on the Envision (Perkin Elmer) after an incubation of 60 min at room temperature (Excitation 485 nm, Emission 530).

Sequence of human ADAMTS-5 (Q9UNA0 262-930): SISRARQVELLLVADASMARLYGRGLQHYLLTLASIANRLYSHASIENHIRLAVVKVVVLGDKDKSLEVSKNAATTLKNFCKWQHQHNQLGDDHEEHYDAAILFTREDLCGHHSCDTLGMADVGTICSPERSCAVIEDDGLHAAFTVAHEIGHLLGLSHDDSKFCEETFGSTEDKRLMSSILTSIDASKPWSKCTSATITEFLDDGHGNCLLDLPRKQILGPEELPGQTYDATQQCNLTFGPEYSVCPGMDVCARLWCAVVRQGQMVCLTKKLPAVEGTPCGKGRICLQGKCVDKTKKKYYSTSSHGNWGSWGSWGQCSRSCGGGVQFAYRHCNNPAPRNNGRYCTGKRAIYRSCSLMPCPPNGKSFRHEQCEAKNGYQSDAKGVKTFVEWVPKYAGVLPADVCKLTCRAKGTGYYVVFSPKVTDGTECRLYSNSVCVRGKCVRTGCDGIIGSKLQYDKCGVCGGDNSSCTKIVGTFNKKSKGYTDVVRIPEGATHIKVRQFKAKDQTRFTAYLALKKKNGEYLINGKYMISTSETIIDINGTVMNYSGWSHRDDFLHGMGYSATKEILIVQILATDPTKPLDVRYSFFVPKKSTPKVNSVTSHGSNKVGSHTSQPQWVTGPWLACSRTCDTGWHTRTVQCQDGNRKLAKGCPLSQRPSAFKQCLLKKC
Sequence of rnADAMTS-5 (1-564-6H) (Q6TY19 entry or part of it): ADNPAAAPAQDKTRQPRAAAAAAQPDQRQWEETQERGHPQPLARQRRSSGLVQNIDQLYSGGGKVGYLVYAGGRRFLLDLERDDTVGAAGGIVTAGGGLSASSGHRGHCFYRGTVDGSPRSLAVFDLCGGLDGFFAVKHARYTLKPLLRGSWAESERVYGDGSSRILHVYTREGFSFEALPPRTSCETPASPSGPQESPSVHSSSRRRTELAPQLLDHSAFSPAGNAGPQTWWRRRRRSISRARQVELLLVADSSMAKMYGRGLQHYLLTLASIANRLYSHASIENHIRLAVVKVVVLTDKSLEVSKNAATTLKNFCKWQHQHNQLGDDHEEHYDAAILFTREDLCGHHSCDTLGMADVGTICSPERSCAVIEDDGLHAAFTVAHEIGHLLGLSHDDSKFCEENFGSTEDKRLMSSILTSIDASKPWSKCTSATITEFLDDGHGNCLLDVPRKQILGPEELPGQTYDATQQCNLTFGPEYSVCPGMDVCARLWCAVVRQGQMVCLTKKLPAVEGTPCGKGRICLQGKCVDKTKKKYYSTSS
Sequence of human ADAMTS6 (Q9UKP5 other isoform, or with tags, fused parts or gaps): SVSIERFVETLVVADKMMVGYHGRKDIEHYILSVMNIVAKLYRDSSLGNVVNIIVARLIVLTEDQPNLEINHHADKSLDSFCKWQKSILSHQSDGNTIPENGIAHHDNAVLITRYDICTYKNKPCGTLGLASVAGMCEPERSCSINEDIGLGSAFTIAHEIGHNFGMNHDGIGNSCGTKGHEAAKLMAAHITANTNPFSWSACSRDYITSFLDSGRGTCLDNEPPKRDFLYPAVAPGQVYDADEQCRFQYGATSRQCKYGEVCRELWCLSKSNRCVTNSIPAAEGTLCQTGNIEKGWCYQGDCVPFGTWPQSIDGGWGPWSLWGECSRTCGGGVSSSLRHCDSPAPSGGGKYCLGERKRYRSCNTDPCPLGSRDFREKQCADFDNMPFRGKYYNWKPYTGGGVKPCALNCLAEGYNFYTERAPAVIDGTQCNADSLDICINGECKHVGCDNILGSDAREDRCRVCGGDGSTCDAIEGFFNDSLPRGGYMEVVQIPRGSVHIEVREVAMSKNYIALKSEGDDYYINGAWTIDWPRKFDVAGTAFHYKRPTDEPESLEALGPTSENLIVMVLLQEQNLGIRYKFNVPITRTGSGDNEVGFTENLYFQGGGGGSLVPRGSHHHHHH
Sequence of human TACE (P78536 215-671): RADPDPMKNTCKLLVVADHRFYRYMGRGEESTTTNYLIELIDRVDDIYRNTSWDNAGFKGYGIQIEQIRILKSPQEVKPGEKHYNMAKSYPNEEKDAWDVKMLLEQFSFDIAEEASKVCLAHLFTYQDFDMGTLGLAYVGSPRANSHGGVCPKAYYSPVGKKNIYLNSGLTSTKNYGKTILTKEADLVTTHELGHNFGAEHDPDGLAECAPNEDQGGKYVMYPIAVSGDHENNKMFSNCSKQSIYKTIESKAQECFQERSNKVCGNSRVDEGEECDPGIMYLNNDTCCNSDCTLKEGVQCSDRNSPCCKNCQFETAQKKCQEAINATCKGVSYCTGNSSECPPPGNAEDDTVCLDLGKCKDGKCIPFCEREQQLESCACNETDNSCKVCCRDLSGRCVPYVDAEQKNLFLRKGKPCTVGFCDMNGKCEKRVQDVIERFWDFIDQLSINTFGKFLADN

A word on the IC50: it is the concentration at which inhibition is half-maximal. Turning to `C[C@@H](C[C@@]1(C)NC(=O)NC1=O)C(=O)N1CCC(c2ccc(Cl)cc2)CC1` (stereo in doubt) [Cpd 24, 5-(3-(4-(4-chlorophenyl)piperidin-1-yl)-2-methyl-3-oxopropyl)-5-methyl imidazolidine-2,4-dione], the IC50 in experiment [1] is 50 to 100 nM; in experiment [2] it was 50 to 100 nM; in experiment [3], 0.001 to 25 nM; in experiment [4] (5FAM-LAQAVRSSSRK-5TAMRA), > 100 nM; in experiment [5], > 100 nM.

Regarding `C[C@@H](C[C@@]1(C)NC(=O)NC1=O)C(=O)N1CCC(c2cc(Cl)cc(Cl)c2)CC1` (stereo in doubt) [Cpd 25, 5-(3-(4-(3,5-dichlorophenyl)piperidin-1-yl)-2-methyl-3-oxopropyl)-5-methyl-imidazolidine-2,4-dione], the IC50 in experiment [1] was 25 to 50 nM; in experiment [2], 25 to 50 nM; in experiment [3] it was 0.001 to 25 nM; in experiment [4] (5FAM-[…]-5TAMRA), 50 to 100 nM; in experiment [5], > 100 nM.

For `C[C@@H](C[C@@]1(C)NC(=O)NC1=O)C(=O)N1CCC(c2ccc(F)cc2)CC1` (stereo in doubt) [Cpd 26, 5-(3-(4-(4-fluorophenyl)piperidin-1-yl)-2-methyl-3-oxopropyl)-5-methyl-imidazolidine-2,4-dione], the IC50 is 50 to 100 nM in experiment [1]; 50 to 100 nM in experiment [2]; 25 to 50 nM in experiment [3]; > 100 nM in experiment [4] (5FAM-LAQAVRSSSRK-5TAMRA); > 100 nM in experiment [5].

`Cc1cccc(C2CCN(C(=O)[C@@H](C)C[C@@]3(C)NC(=O)NC3=O)CC2)c1` (stereo in doubt) [Cpd 27, 5-methyl-5-(2-methyl-3-oxo-3-(4-m-tolylpiperidin-yl)propyl) imidazolidine-2,4-dione]: the IC50 in experiment [1] is 25 to 50 nM; in experiment [2], 25 to 50 nM; in experiment [3], 25 to 50 nM; in experiment [4] (5FAM-[…]-5TAMRA), 50 to 100 nM; in experiment [5] it was > 100 nM.

Regarding `C[C@@H](C[C@@]1(C)NC(=O)NC1=O)C(=O)N1CCC(c2cccc(F)c2)CC1` (stereo in doubt) [Cpd 28, 5-(3-(4-(3-fluorophenyl)piperidin-1-yl)-2-methyl-3-oxopropyl)-5-methyl-imidazolidine-2,4-dione], the IC50 was 0.001 to 25 nM in experiment [1]; 25 to 50 nM in experiment [2]; 50 to 100 nM in experiment [3]; > 100 nM in experiment [4] (5FAM-LAQAVRSSSRK-5TAMRA); > 100 nM in experiment [5].

`C[C@@H](C[C@@]1(C)NC(=O)NC1=O)C(=O)N1CCC(c2cccc(Cl)c2)CC1` (stereo in doubt) [Cpd 29, 5-(3-(4-(3-chlorophenyl)piperidin-1-yl)-2-methyl-3-oxopropyl)-5-methyl-imidazolidine-2,4-dione]: the IC50 in experiment [1] is 0.001 to 25 nM; in experiment [2] it was 25 to 50 nM; in experiment [3], 25 to 50 nM; in experiment [4] (5FAM-[…]-5TAMRA), 50 to 100 nM; in experiment [5] it was > 100 nM.

For the compound `O=C1NC(=O)C(CCC(=O)N2CCC(c3cc(Cl)cc(Cl)c3)CC2)(C2CC2)N1` (stereo not shown) [Cpd 17, 5-cyclopropyl-5-(3-(4-(3,5-dichlorophenyl)piperidin-1-yl)-3-oxopropyl) imidazolidine-2,4-dione], the IC50 in experiment [1] is 50 to 100 nM; in experiment [2], 50 to 100 nM; in experiment [3], 50 to 100 nM; in experiment [4] (5FAM-LAQAVRSSSRK-5TAMRA), > 100 nM; in experiment [5], > 100 nM.

`O=C1NC(=O)C(CCC(=O)N2CCC(c3cccc(Cl)c3)CC2)(C2CC2)N1` (stereo not shown) [Cpd 18, 5-(3-(4-(3-chlorophenyl)piperidin-1-yl)-3-oxopropyl)-5-cyclopropyl-imidazolidine-2,4-dione]: the IC50 is 50 to 100 nM in experiment [1]; 25 to 50 nM in experiment [2]; > 100 nM in experiment [3]; > 100 nM in experiment [4] (5FAM-LAQAVRSSSRK-5TAMRA); > 100 nM in experiment [5].

For the compound `O=C1NC(=O)C(CCC(=O)N2CCC(c3cccc(F)c3)CC2)(C2CC2)N1` (stereo not shown) [Cpd 19, 5-cyclopropyl-5-(3-(4-(3-fluorophenyl)piperidin-1-yl)-3-oxopropyl) imidazolidine-2,4-dione], the IC50 in experiment [1] was 25 to 50 nM; in experiment [2] it was 25 to 50 nM; in experiment [3], > 100 nM; in experiment [4] (5FAM-LAQAVRSSSRK-5TAMRA), > 100 nM; in experiment [5], > 100 nM.

Regarding `C[C@@H](C[C@@]1(C2CC2)NC(=O)NC1=O)C(=O)N1CCC(c2ccccc2)CC1` [Cpd 20], the IC50 in experiment [1] is 50 to 100 nM; in experiment [2], 50 to 100 nM; in experiment [3], > 100 nM; in experiment [4] (5FAM-LAQAVRSSSRK-5TAMRA) it was > 100 nM; in experiment [5], > 100 nM.

On to `COc1cc(Cl)c(F)cc1C1CCN(C(=O)CC[C@@]2(C)NC(=O)NC2=O)CC1` [Cpd 100, (5R)-5-[3-[4-(4-chloro-5-fluoro-2-methoxy-phenyl)-1-piperidyl]-3-oxo-propyl]-5-methyl-imidazolidine-2,4-dione], for which the IC50 in experiment [2] is > 100 nM; in experiment [3] it was 0.001 to 25 nM; in experiment [4] (5FAM-LAQAVRSSSRK-5TAMRA) it was > 100 nM; in experiment [6], > 100 nM; in experiment [7], > 100 nM.

Take `COc1cc(F)c(Cl)cc1C1CCN(C(=O)CC[C@@]2(C)NC(=O)NC2=O)CC1` [Cpd 101, (5R)-5-[3-[4-(5-chloro-4-fluoro-2-methoxy-phenyl)-1-piperidyl]-3-oxo-propyl]-5-methyl-imidazolidine-2,4-dione]: the IC50 is > 100 nM in experiment [2]; 25 to 50 nM in experiment [3]; > 100 nM in experiment [4] (5FAM-LAQAVRSSSRK-5TAMRA); > 100 nM in experiment [6]; > 100 nM in experiment [7].

In the case of `COc1cc(C2CCN(C(=O)[C@@H](C)C[C@@]3(C)NC(=O)NC3=O)CC2)cc(F)c1Cl` [Cpd 102], the IC50 was 25 to 50 nM in experiment [2]; 0.001 to 25 nM in experiment [3]; 50 to 100 nM in experiment [4] (5FAM-[…]-5TAMRA); > 100 nM in experiment [6]; > 100 nM in experiment [7].

For `CCc1cc(C2CCN(C(=O)CC[C@@]3(C)NC(=O)NC3=O)CC2)cc(OC)c1Cl` [Cpd 105, (5R)-5-[3-[4-(4-chloro-3-ethyl-5-methoxy-phenyl)-1-piperidyl]-3-oxo-propyl]-5-methyl-imidazolidine-2,4-dione], the IC50 in experiment [2] is > 100 nM; in experiment [3] it was 0.001 to 25 nM; in experiment [4] (5FAM-[…]-5TAMRA) it was 25 to 50 nM; in experiment [6], > 100 nM; in experiment [7], > 100 nM.

For `CCc1cc(C2CCN(C(=O)CC[C@H]3NC(=O)NC3=O)CC2)cc(OC)c1Cl` [Cpd 106, (5R)-5-[3-[4-(4-chloro-3-ethyl-5-methoxy-phenyl)-1-piperidyl]-3-oxo-propyl] imidazolidine-2,4-dione], the IC50 in experiment [2] is > 100 nM; in experiment [3], 0.001 to 25 nM; in experiment [4] (5FAM-[…]-5TAMRA), 50 to 100 nM; in experiment [6] it was > 100 nM; in experiment [7], > 100 nM.

In the case of `COc1cc(Cl)c(F)cc1C1CCN(C(=O)C(C)CC2(C)NC(=O)NC2=O)CC1` (stereo not shown) [Cpd 110, 5-[3-[4-(4-chloro-5-fluoro-2-methoxy-phenyl)-1-piperidyl]-2-methyl-3-oxo-propyl]-5-methyl-imidazolidine-2,4-dione], the IC50 in experiment [2] was 50 to 100 nM; in experiment [3], 0.001 to 25 nM; in experiment [4] (5FAM-[…]-5TAMRA) it was 50 to 100 nM; in experiment [6], > 100 nM; in experiment [7], > 100 nM.

For `COc1cc(C2CCN(C(=O)CC[C@H]3NC(=O)NC3=O)CC2)cc(C)c1Cl` [Cpd 115, (5R)-5-[3-[4-(4-chloro-3-methoxy-5-methyl-phenyl)-1-piperidyl]-3-oxo-propyl] imidazolidine-2,4-dione], the IC50 in experiment [2] was > 100 nM; in experiment [3], 0.001 to 25 nM; in experiment [4] (5FAM-[…]-5TAMRA), 50 to 100 nM; in experiment [6] it was > 100 nM; in experiment [7], > 100 nM.
